The text below walks through data of patent US11559575B2, “Multi-epitopic peptide compounds and vaccines against leishmaniasis” (INSTITUT DE RECHERCHE POUR LE DEVELOPPEMENT, priority 2018, dated 2023).

“Also recorded” adds a separate entry of the source.

Test [1] relates to HLA alleles of class I. Kind of test: Affinity of epitopes for HLA alleles of class I. In kind it is binding, human. To be noted: for Concatenation affinity allele CII: PSA KC-2.6 Peptide CII; for Affinity HLA alleles of class I: PSA KC-2.6 core; for Affinity for the HLA alleles of class I: H2B-1 epitopes, Table 1; for Affinity allele class I: LmLRAB-IIA peptides. The text has this: (§1) The multiepitopic peptide compounds (24 to 40-mer), having a high affinity with a maximized number of HLA molecules of class I and of class II, such as the affinities for the alleles HLA of class I and HLA of class II of the epitopes in the peptides of the sequences SEQ ID NO: 22, 23, 65, 66, 69, 73, 77, 96, 97, 137, 138, and 157, 185, have a high immunoprevalent potential corresponding to an optimal vaccine coverage, in particular for the populations concerned. The degree of coverage of the peptide compounds of the invention show a very high added value compared with the peptides of the prior art.

Test [2] has as its system HLA alleles of class II. Put plainly: Affinity of epitopes for HLA alleles of class II. In kind it is binding, human. Conditions: for Concatenation affinity for the HLA alleles of class II: H2B-II peptides.
Description: as §1

Where [3] appears, read: LmlRAB-IIB Peptide CII, Table 2.

Consider “ARSARSGEGY (listed as Leishmania infantum) [SEQ ID NO: 151]”, for which the “Concatenation affinity allele CII” value in test [1] (Table 3) is recorded as “HLA-B*15:01”.
Same read-out and setting: to “ARSGEGYFL (listed as Leishmania infantum) [SEQ ID NO: 152]” belongs “HLA-B*39:01”.
Regarding “DVHYSEVSA (Leishmania major) [SEQ ID NO: 128]”, the “Concatenation affinity for HLA alleles of class I” value in test [1] (setting [3]) is “HLA-A*68*02”.
Same read-out and setting: with “ENAIVTSRK (Leishmania major) [SEQ ID NO: 129]” the entry was “HLA-A*68:01”.
For “EVFDLFTDV (Leishmania major) [SEQ ID NO: 120]”, in test [1] (LmlRAB-IIB core, Table 2), the “Affinity for HLA alleles of class I” value is on record as “HLA-A*02:03,; also recorded: HLA-A*02:06,; also recorded: HLA-A*68:02”.
Regarding “FDLFTDVHY (Leishmania major) [SEQ ID NO: 130]”, the “Concatenation affinity for HLA alleles of class I” value in test [1] (setting [3]) is listed as “HLA-A*02:01, HLA-B*35:01”.
As for “FLTDEKTSL (listed as Leishmania infantum) [SEQ ID NO: 146]”, the “Affinity HLA alleles of class I” value in test [1] (Table 3) is reported as “HLA-A*02:01,; also recorded: HLA-A*02:03,; also recorded: HLA-A*02:06,; also recorded: HLA-B*39:01”.
On to “FLTDEKTSLV (listed as Leishmania infantum) [SEQ ID NO: 153]”, for which the “Concatenation affinity allele CII” value in test [1] (Table 3) is “HLA-A*01:01, HLA-A*02:01”.
Turning to “FTDVHYSEV (Leishmania major) [SEQ ID NO: 121]”, in test [1] (LmlRAB-IIB core, Table 2), the “Affinity for HLA alleles of class I” value is “HLA-A*02:01,; also recorded: HLA-A*02:03,; also recorded: HLA-A*02:06,; also recorded: HLA-A*35:01,; also recorded: HLA-A*68:02”. In addition, the “Concatenation affinity for HLA alleles of class II” value in test [2] (LmlRAB-IIB core, Table 2) is given as “HLA-DRB1*07:01,; also recorded: HLA-DRB1*09:01,; also recorded: HLA-DRPA*01:03/; also recorded: DPB1*04:01,; also recorded: HLA-DPA1*01:03/; also recorded: DPB1*02:01”.
Consider “GSDYSHSMIR (listed as Leishmania infantum) [SEQ ID NO: 179]”, for which, in test [1] (PSA KC-2.7 peptides, Table 3), the “Concatenation affinity for HLA alleles of class I” value was “HLA-A*03:01”.
In the case of “HSMIRDLDF (listed as Leishmania infantum) [SEQ ID NO: 173]”, the “Affinity for HLA alleles of class I” value in test [1] (PSA KC-2.7 core, Table 3) is listed as “HLA-B*35:01,; also recorded: HLA-B*58:01”. For the same sequence, the “Concatenation affinity for HLA alleles of class II” value in test [2] (PSA KC-2.7 core, Table 3) is given as “HLA-DRB4*01:01”.
As to “IVADHMPHL (Leishmania major) [SEQ ID NO: 89]”, the “Affinity for HLA alleles of class I” value in test [1] (LmLRAB-IIA core, Table 2) is listed as “HLA-A*02:01,; also recorded: HLA-A*02:03,; also recorded: HLA-A*02:06”. In test [2] (LmLRAB-IIA core, Table 2), the “Concatenation affinity for HLA alleles of class II” value was “HLA-DRB1*03:01,; also recorded: HLA-DRB1*13:02,; also recorded: HLA-DRB3*01:01”.
Take “KAINAQMSM (Leishmania major) [SEQ ID NO: 3]”: the “Affinity for the HLA alleles of class I” value in test [1] is reported as “HLA-B*58:01,; also recorded: HLA-B*57:01,; also recorded: HLA-B*15:01,; also recorded: HLA-A*30:01”. For the same sequence, the “Affinity for the HLA alleles of class II” value in test [2] (H2B-1 epitopes, Table 1) is listed as “DRB4*01:01”.
For “KEMPSGSDY (listed as Leishmania infantum) [SEQ ID NO: 180]”, in test [1] (PSA KC-2.7 peptides, Table 3), the “Concatenation affinity for HLA alleles of class I” value is given as “HLA-B*15:01, HLA-A*30:02,; also recorded: HLA-B*44:02, HLA-B*44:03”.
Turning to “KGRLHSVVG (Leishmania major) [SEQ ID NO: 92]”, the “Affinity allele class I” value in test [1] (Table 2) is on record as “HLA-A*30:1”.
As for “KGRSENAIV (Leishmania major) [SEQ ID NO: 131]”, the “Concatenation affinity for HLA alleles of class I” value in test [1] (setting [3]) is “HLA-A*30:01”.
For the sequence “KVQEEVFDL (Leishmania major) [SEQ ID NO: 132]”, the “Concatenation affinity for HLA alleles of class I” value in test [1] (setting [3]) is given as “HLA-A*02:01, HLA-A*02:06, HLA-A*32:01”.
The same measure, in the same setting: with “LFTDVHYSEV (Leishmania major) [SEQ ID NO: 133]” the entry was “HLA-A*01:01”.
Consider “LTDEKTSLV (listed as Leishmania infantum) [SEQ ID NO: 148]”, for which the “Affinity HLA alleles of class I” value in test [1] (Table 3) was “HLA-A*02:01,; also recorded: HLA-A*02:03,; also recorded: HLA-A*02:06,; also recorded: HLA-A*68:02”. For the same sequence, the “Concatenation affinity for HLA alleles of class II” value in test [2] (PSA KC-2.6 core, Table 3) is “HLA-DRB1*04:01”.
Regarding “LTDEKTSLVY (listed as Leishmania infantum) [SEQ ID NO: 154]”, the “Concatenation affinity allele CII” value in test [1] (Table 3) was “HLA-A*01:01, HLA-B*15:01”.
With “MIRDLDFSNM (listed as Leishmania infantum) [SEQ ID NO: 181]”, the “Concatenation affinity for HLA alleles of class I” value in test [1] (PSA KC-2.7 peptides, Table 3) is on record as “HLA-B*15:01”.
Same read-out and setting: to “MPSGSDYSH (listed as Leishmania infantum) [SEQ ID NO: 182]” belongs “HLA-B*35:01, HLA-B*53:01”; to “NMGLLLSGT (listed as Leishmania infantum) [SEQ ID NO: 183]”, “HLA-A*02:02”.
Consider “RLHSVVGRH (Leishmania major) [SEQ ID NO: 93]”, for which the “Affinity allele class I” value in test [1] (Table 2) is given as “HLA-A*03:01, HLA-A*30:02”.
Regarding “RSARSGEGY (listed as Leishmania infantum) [SEQ ID NO: 155]”, the “Concatenation affinity allele CII” value in test [1] (Table 3) is “HLA-A*30:02, HLA-B*15:01, HLA-B*57:01,; also recorded: HLA-B*58:01”.
For the sequence “RSARSGEGYF (listed as Leishmania infantum) [SEQ ID NO: 156]”, the “Concatenation affinity allele CII” value in test [1] (Table 3) was “HLA-B*15:01, HLA-B*58:01”.
For “SDYSHSMIR (listed as Leishmania infantum) [SEQ ID NO: 177]”, the “Affinity for HLA alleles of class I” value in test [1] (PSA KC-2.7 core, Table 3) is recorded as “HLA-A*31:01,; also recorded: HLA-A*68:01”. In addition, in test [2] (PSA KC-2.7 core, Table 3), the “Concatenation affinity for HLA alleles of class II” value is given as “HLA-DRB1*07:01,; also recorded: HLA-DRB5*01:01”.
As for “SENAIVTSR (Leishmania major) [SEQ ID NO: 134]”, in test [1] (setting [3]), the “Concatenation affinity for HLA alleles of class I” value is listed as “HLA-A*31:01, HLA-B*44:03, HLA-A*68:01”.
“SMIRDLDFS (listed as Leishmania infantum) [SEQ ID NO: 184]”: in test [1] (PSA KC-2.7 peptides, Table 3), the “Concatenation affinity for HLA alleles of class I” value is listed as “HLA-A*02:03, HLA-A*02:06”.
As for “SMSHRTMKSM (Leishmania major) [SEQ ID NO: 19]”, the “Affinity for the HLA alleles of class I” value in test [1] is “HLA-B*15:01,; also recorded: HLA-B*57:01,; also recorded: HLA-A*02:03,; also recorded: HLA-B*08:01”.
“SVVGRHLSI (Leishmania major) [SEQ ID NO: 94]”: the “Affinity allele class I” value in test [1] (Table 2) is given as “HLA-A*02:03, HLA-A*02:06, HLA-A*32:01,; also recorded: HLA-B*08:01”.
On to “TMKSMSHRTM (Leishmania major) [SEQ ID NO: 21]”, for which, in test [1], the “Affinity for the HLA alleles of class I” value is reported as “HLA-B*15:01,; also recorded: HLA-B*08:01”.
Regarding TSRKDQEEV [SEQ ID NO: 135], the “Concatenation affinity for HLA alleles of class I” value in test [1] (setting [3]) was “HLA-B*15:01, HLA-A*30:01, HLA-A*68:02”.
Turning to “VHYSEVSAK (Leishmania major) [SEQ ID NO: 136]”, the “Concatenation affinity for HLA alleles of class I” value in test [1] (setting [3]) is reported as “HLA-A*03:01”.
Consider “VQEEVFDLF (Leishmania major) [SEQ ID NO: 126]”, for which the “Affinity for HLA alleles of class I” value in test [1] (LmlRAB-IIB core, Table 2) is listed as “HLA-A*02:06”.
“VVGRHLSIV (Leishmania major) [SEQ ID NO: 95]”: the “Affinity allele class I” value in test [1] (Table 2) is on record as “HLA-A*02:03”.
For “WNVYVGRSLKAINAQ (Leishmania major) [SEQ ID NO: 30]”, the “Concatenation affinity for the HLA alleles of class II” value in test [2] (Table 1) is given as “HLA-DRB5*01:01, HLA-DRB1*04:05, HLA-DPA1*03:01/; also recorded: DPB1*04:02, HLA-DRB1*01:01, HLA-DRB1*03:01,; also recorded: HLA-DRB1*04:01, HLA-DRB1*11:01, HLA-DRB1*07:01,; also recorded: HLA-DRB9*01:01, HLA-DRB1*15:01, HLA-DPA1*02:01/; also recorded: DPB1*01:01, HLA-DRB1*08:02”.
For “YFLTDEKTS (listed as Leishmania infantum) [SEQ ID NO: 150]”, in test [2] (PSA KC-2.6 core, Table 3), the “Concatenation affinity for HLA alleles of class II” value is “HLA-DRB1*04:01,; also recorded: HLA-DRB1*11:01”.
With “YFLTDEKTSLVYGDG (listed as Leishmania infantum) [SEQ ID NO: 145]”, in test [2] (PSA KC-2.6 peptides, Table 3), the “Concatenation affinity for HLA alleles of class II” value is “HLA-DRB1*01:01, HLA-DRB1*03:01,; also recorded: HLA-DRB1*04:01, HLA-DRB3*01:01,; also recorded: HLA-DRB3*02:02,; also recorded: HLA-DPA1*03:01/DPB1*04:02,; also recorded: HLA-DPA1*02:01/DPB1*14:01”.
As to “YSEVSAKTK (Leishmania major) [SEQ ID NO: 127]”, the “Concatenation affinity for HLA alleles of class II” value in test [2] (LmlRAB-IIB core, Table 2) is reported as “HLA-DRB1*07:01,; also recorded: HLA-DRB5*01:01”.
“YSHSMIRDL (listed as Leishmania infantum) [SEQ ID NO: 178]”: the “Concatenation affinity for HLA alleles of class II” value in test [2] (PSA KC-2.7 core, Table 3) is “HLA-DRB1*04:05,; also recorded: HLA-DRB1*07:01,; also recorded: HLA-DRB1*09:01,; also recorded: HLA-DPA1*02:01/; also recorded: DPB1*01:01”.
For the sequence “YSHSMIRDLDFSNMG (listed as Leishmania infantum) [SEQ ID NO: 170]”, the “Concatenation affinity for HLA alleles of class II” value in test [2] (PSA KC-2.7 peptides, Table 3) is “HLA-DRB1*04:01, HLA-DRB1*04:05,; also recorded: HLA-DRB1*07:01, HLA-DRB1*08:02,; also recorded: HLA-DRB1*09:01, HLA-DRB1*12:01,; also recorded: HLA-DRB4*01:01”.
Turning to “YVGRSLKAI (Leishmania major) [SEQ ID NO: 54]”, in test [2] (H2B-II core epitopes, Table 1), the “Affinity HLA alleles of class II” value was “HLA-DRB1*08:02,; also recorded: HLA-DPA1*02:01/; also recorded: DPB1*01:01”.
As to “YVGRSLKAINAQMSM (Leishmania major) [SEQ ID NO: 33]”, the “Concatenation affinity for the HLA alleles of class II” value in test [2] (Table 1) is reported as “HLA-DRB1*04:01, HLA-DRB1*11:01, HLA-DRB1*08:02,; also recorded: HLA-DRB1*01:01, HLA-DRB1*04:05, HLA-DRB1*07:01,; also recorded: HLA-DRB1*09:01, HLA-DRB4*01:01, HLA-DRB5*01:01,”.
